Assay results: patent publication US20100016211A1, “Treatment of Melanoma With Alpha Thymosin Peptides” (SciClone Pharmaceuticals, Inc., priority 2007, published 2010)
Ends that are not written are not given here.

Legend:
[1] = tested on: stage IV metastatic melanoma; assay: Phase 2 multi-center open-label study: overall survival (OS); format: in vivo, human; settings: regimen with TA1 but without IFN alpha vs both IFN alpha and TA1
Source text: (§1) This phase 2 multi-center, open-label study enrolled 488 patients with stage IV metastatic melanoma at 64 European clinical sites. The trial was designed to evaluate different dose levels of Thymosin alpha 1 (TA1). This study was in combination with DTIC chemotherapy, with and without low-dose interferon alpha, as a first-line treatment for malignant melanoma. Most patients enrolled in the trial had liver and other metastases and the remaining patients had lung metastases and skin or lymph node metastases.
(§2) A total of 488 patients (pts) (63% M1; 24% M1b; 13% M1a) were randomised into the study from 64 European sites. Demographic and baseline characteristics are shown in table 1 wherein DIT=DTIC/IFN alpha,/TA1, DT=DTIC/TA1, T=TA1, DI=DTIC/IFN alpha and ECOG PS is a patient's health performance status (PS) according to the Eastern Cooperative Oncology Group (ECOG).

[2] = tested on: stage IV metastatic melanoma; assay: Phase 2 multi-center open-label study: tumor response (CR, PR, RR); format: in vivo, human; settings: regimen with TA1 but without IFN alpha vs both IFN alpha and TA1
Source text: as §1, §2

[3] = Phase 2 multi-center open-label study: adverse events and tolerability; parameters: species or system human; settings: in vivo
Source text: as §1, §2

[4] = tested on: stage IV metastatic melanoma; assay: Phase 2 multi-center open-label study: progression free survival (PFS); format: in vivo, human; settings: regimen with TA1 but without IFN alpha vs both IFN alpha and TA1
Source text: as §1, §2

Melan-A/MART-1 = assay: Melanoma antigen expression in B-16 cells by confocal microscopy; format: cell-based, mouse
Source text: (§3) Thymosin alpha 1 was able to up-regulate melanoma-specific antigens melan-A and MART-1 on the cell surface of mouse B-16 melanoma cells.

Gp100 = assay: as above; format: cell-based; settings: B-16 mouse melanoma cells, 24 h treatment, 50 μg/ml; control: +
Source text: as §3

thymosin alpha 1 (Ac-SDAAVDTSSEITTKDLKEKKEVVEEAEN; UniProt P06454 2-29, looked up)
Median survival rate (in words) [1]: higher median survival rate
Overall tumor response (in words) [2]: higher overall tumor response
Serious adverse events attributed to the drug (in words) [3]: no serious adverse events attributed to the drug
Progression-free survival (in words) [4]: higher progression-free survival
Melan-A/MART-1 expression (Melan-A/MART-1; B-16 mouse melanoma cells, 24 h treatment, 50 μg/ml, control: +): ++ ↑
Melanoma-specific antigens melan-A and MART-1 on the cell surface (in words) (Melan-A/MART-1; mouse B-16 melanoma cells): up-regulate
Gp100 expression (Gp100): ± ↓
